# Results published in patent US20210321627A1, “NON-PESTICIDAL ATTRACT AND KILL COMPOSITION FOR CONTROL OF INSECTS” (Oregon State University, priority 2018, published 2021).
# System: D. suzukii
# Assay: Laboratory choice assays (double-choice ventilated arenas)
# Type: in vivo, Drosophila suzukii
# Conditions: vs flies selecting deionized water and flies not making any choice; 24 h; P<0.001
# Experimental: Constant and uniform airflow was created within each of the containers using a vacuum at 1.5 L mid′ from the base and through the upper portion of each of the respective containers. Attraction to the matrix containing the ingredients of the exemplary insect control composition was verified in double-choice behavioral experiments. Arenas were prepared using 2-L transparent Griffin-style graduated low-form plastic beakers (Nalgene, Rochester, N.Y.). For each beaker, 9 ventilation holes (1 cm diameter) were cut along the circumference approximately 6 cm from the base. The holes were covered with fine white mesh in order to prevent D. suzukii individuals from escaping. The top of each beaker was drilled and connected to a 0.5 cm diameter plastic tube providing a vacuum in order to create a constant and uniform air flow (1.5 L min^−1) within the containers. Beakers were placed upside down on a flat work surface covered by white paper sheets. Two 25 mL plastic cups (Dart Container Corporation, Mason, Mich.) containing ˜10 mL of water and 5 g of arabinogalactan were placed at the base of each beaker. Both cups were covered with a wax film (Parafilm® M, Pechiney, Chicago, Ill.). 3 holes (˜0.3 cm diameter) were cut on the film coverings in order to allow the flies to enter the cups. […]
substance,measurement,value
arabinogalactan,number of flies selecting deli cups containing arabinogalactan,significantly higher
